Measured values from patent US9877981B2, “NAD biosynthesis and precursors for the treatment and prevention of cancer and proliferation” (President and Fellows of Harvard College, priority 2012, dated 2018).

Tests used:
[1] = system: mitochondrial-encoded genes (ND1, Cytb, COX1 and ATP6); experiment: qPCR of mitochondrial-encoded genes in gastrocnemius of treated mice; type: in vivo
Text: (§1) C57BL/6J mice of 6, 22, or 30 months of age were obtained from the National Institutes of Aging mouse aging colony. Additionally 22 months old caloric restricted mice were also obtained from the National Institutes of Aging mouse aging colony. EGLN1 KO, SIRT1 KO and SIRT1 OE mice were generated as previously described (Minamishima et al., 2008; Price et al., 2012). Mice were acclimated for at least one-week prior to sacrifice. 3, 6, 22 and 24-month-old mice were given interperitoneal (IP) injections of 500 mg NMN/kg body weight per day or the equivalent volume of PBS for 7 consecutive days at 5:00 pm and 7:00 am on day 8 and sacrificed 4 hr after last injection.
(§2) Whole body SIRT1 overexpressor (SIRT1-tg) mice of 6 months of age were given interperitoneal (IP) injections of 300 mg DMOG/kg body weight per day or the equivalent volume of PBS for 5 consecutive days.
(§3) Whole body adult-inducible Egln1 knockout mice (Minamishima et al, 2007) were treated with IP injection of tamoxifen for 3 days after which they were allowed to rest. The mice were given interperitoneal (IP) injections of 500 mg NMN/kg body weight per day or the equivalent volume of PBS for 7 consecutive days at 5:00 pm and 7:00 am on day 8 and sacrificed 4 hr after last injection. All animal studies followed the guidelines of and were approved by the Harvard Institutional Animal Care and Use Committee.
(§4) RNA from skeletal muscle tissue and C2C12 cells were extracted with RNeasy mini kit (Qiagen) according to the instructions and quantified using the NanoDrop 1000 spectrophotometer (Thermo Scientific). cDNA was synthesized with the iSCRIP cDNA synthesis kit (BioRad) using 600 ng of RNA. Quantitative RT-PCR reactions were performed using 1 μM of primers and LightCycler® 480 SYBR Green Master (Roche) on an LightCycler® 480 detection system (Roche). Calculations were performed by a comparative method (2-ΔCT) using 18S as an internal control. For mtDNA analysis, total DNA was extracted with DNeasy blood and tissue kit (Qiagen). mtDNA was amplified using primers specific for the mitochondrial cytochrome c oxidase subunit 2 (COX2) gene and normalized to genomic DNA by amplification of the ribosomal protein s18 (rps18) nuclear gene. Primers were designed using the IDT software (IDT) and the primer sequences can be found in Table 1.
RNA from skeletal muscle and aorta were extracted with RNeasy mini kit (Qiagen) according to the instructions and quantified using the NanoDrop 1000 spectrophotometer (Thermo Scientific). cDNA was synthesized with the iSCRIP cDNA synthesis kit (BioRad) using 600 ng of RNA. Quantitative RT-PCR reactions were performed using 1 μM of primers and LightCycler® 480 SYBR Green Master (Roche) on an LightCycler® 480 detection system (Roche). […]

[2] = system: skeletal muscle mitochondria; experiment: Mitochondrial function in skeletal muscle of treated mice (membrane potential, ATP content, COX activity); type: in vivo
Experimental: C57BL/6J mice of 3, 6, 22, 24, or 30 months of age were obtained from the National Institutes of Aging mouse aging colony. Mice were acclimated for at least one-week prior to sacrifice. 3, and 24-month-old mice were given interperitoneal (IP) injections of 500 mg NMN/kg body weight per day or the equivalent volume of PBS for 7 consecutive days at 5:00 pm and 7:00 am on day 8 and sacrificed 4 hr after last injection. All animal studies followed the guidelines of and were approved by the Harvard Institutional Animal Care and Use Committee
Skeletal muscle mitochondria were isolated as described previously (Frezza et al., Nat. Protoc. 2:287-295 (2007)). Mitochondrial membrane potential, cytochrome c activity and succinate dehydrogenase were determined as described (Brautigan et al., Methods Enzymol. 53:128-164 (1978); Rolo et al., Biochim. Biophys. Acta. 1637:127-132 ([…]); Singer, T. P., Methods Biochem. Anal. 22:123-175 (1974)). ATP content was measured with a commercial kit according to the manufacturer's instructions (Roche).
as §1, §2, §3
Cytochrome c oxidase activity was polarographically determined based on the O2 consumption upon cytochrome c oxidation, as previously described (Brautigan et al., 1978). The reaction was carried out at 25° C. in 1.3 mL of standard respiratory medium (as in mitochondrial respiration) supplemented with 2 μM rotenone, 10 μM oxidized cytochrome c, 0.3 mg TritonX-100. Following addition of the sample, the reaction was initiated by adding 5 mM ascorbate plus 0.25 mM tetramethylphenylene-diamine (TMPD).
ATP content was measured with a commercial kit according to the manufacturer's instructions (Roche).

PGC-1α/β KO myotubes = experiment: qPCR of ETC genes in PGC-1α/β KO myotubes; type: cell-based, mouse; design: expression of mitochondrially-encoded ETC genes (ND1, CYTB, COX1, ATP6): dose or concentration left out as unconfirmed
Experimental: Primary myoblasts cells were isolated from WT, SIRT1 KO (Price et al., 2012) and PGC-1α/β KO (Zechner et al., 2010) mice as previously described (Price et al., 2012). WT and PGC-1α/β KO primary myoblasts were plated and allowed to differentiate into myotubes by replacing the media with low glucose DMEM supplemented with 2% horse serum (Sigma-Aldrich) for 4 days. After the differentiation the cells were infected with empty vector or flag-SIRT1 adenovirus as described before (Gerhart-Hines et al., 2007). Media was replaced with fresh DMEM supplemented with 2% horse serum (Sigma-Aldrich) for an additional 48 hr and, after that the cells were harvested for the different assays as described. To investigate the role of HIF-1α in genome asynchrony, PGC-1α/β KO primary myotubes were treated for 12 hours with 1 mM DMOG (Sigma) or 10 μM DFO (Sigma), 24 h after infection with empty vector of flag-SIRT1 adenovirus or after 12 h treatment with […] NMN (Sigma).
as §4

[3] = Egln1 KO mice treated with NMN 500 mg/kg IP 7 days, compared to WT controls
[4] = treated 24-month-old mice, NMN 500 mg/kg IP one week, skeletal muscle
[5] = SIRT1-tg mice, DMOG 300 mg/kg IP per day, 5 days, gastrocnemius

With `NC(=O)c1ccc[n+]([C@@H]2O[C@H](COP(=O)([O-])O)[C@@H](O)[C@H]2O)c1` [NMN, nicotinamide mononucleotide] the “expression of mitochondrial-encoded genes” value ([1]; 22-month-old mice, NMN one week, gastrocnemius) was “restored”, the “mitochondrial-encoded genes in skeletal muscle” value [1, 3] was “did not restore mitochondrial-encoded genes” and the “ability of NMN to induce mitochondrially-encoded genes” value ([1]; SIRT1 KO mice vs WT, NMN or PBS, gastrocnemius) was “lost in animals lacking SIRT1”. The ATP levels ([2]; 6- and 22-month-old mice, NMN one week, gastrocnemius) was “increase in ATP levels”, the “ATP levels in skeletal muscle” value [2, 3] was “did not restore” and the “ability of NMN to improve mitochondrial function (membrane potential)” value ([2]; SIRT1 KO mice vs WT, NMN or PBS, skeletal muscle mitochondria) was “lost in animals lacking SIRT1”. For the same compound, the COX activity ([2]; old mice, NMN one week, gastrocnemius (FIG. 24H)) was “increase”, the mitochondrial membrane potential ([2]; treated 24-month-old mice, NMN 500 mg/kg IP one week, isolated skeletal muscle mitochondria) was “restoration of mitochondrial membrane potential to the levels of the young mice” and the ATP levels [2, 4] was “increases in ATP levels”. For the same compound, the COX activity [2, 4] was “increases” and the “expression of mitochondrially-encoded ETC genes (ND1, CYTB, COX1, ATP6)” value (PGC-1α/β KO myotubes; PGC-1α/β KO myotubes incubated with NMN (12 h)) was “induced expression of mitochondrially-encoded ETC genes”.
`COC(=O)CNC(=O)C(=O)OC` [DMOG, dimethyloxaloylglycine] was tested, and the “increase in expression of mitochondrial-encoded genes observed in SIRT1-tg mice” value [1, 5] was “abolished the increase in the expression of mitochondrial-encoded genes”, the “increase in ATP levels observed in SIRT1-tg mice” value [2, 5] was “abolished” and the “effect on NMN-induced expression of mitochondrially-encoded ETC genes” value (PGC-1α/β KO myotubes; PGC-1α/β KO myotubes, NMN plus 1 mM DMOG or 10 μM DFO, 12 hours) was “completely abolished”. The “effect on NAD (pyruvate) mediated increases in mitochondrial-encoded genes” value (PGC-1α/β KO myotubes; PGC-1α/β KO myotubes, pyruvate in presence of DMOG) was “inhibited”, the “expression of mitochondrial-encoded genes compared to vehicle control” value (PGC-1α/β KO myotubes; PGC-1α/β knockout myotubes treated with DMOG) was “induced a decline in the expression of mitochondrial-encoded genes” and the “effect on induction of mitochondrial ETC genes by SIRT1 overexpression” value (PGC-1α/β KO myotubes; PGC-1α/β knockout myotubes with SIRT1 adenovirus, 1 mM DMOG or 10 μM DFO) was “completely blocked”.
